In patent publication US9187467B2, “2-phenyl benzothiazole linked imidazole compounds as potential anticancer agents and process for the preparation thereof” (Council of Scientific and Industrial Research, priority 2012, dated 2015):
Like-named read-outs stand apart in the source and are kept apart here.

Legend:
A549/ATCC = experiment: SRB anticancer assay, non-small lung; type: cell-based, human; settings: Homo sapiens, 48 h
NCI-H522 = experiment: SRB anticancer assay, non-small lung; type: cell-based, human; settings: Homo sapiens, NCI-H522, 48 h
HT29 = experiment: SRB anticancer assay, colon; type: cell-based, human; settings: Homo sapiens, HT-29; HT29, 48 h
SF-295 = experiment: SRB anticancer assay, CNS; type: cell-based, human; settings: Homo sapiens, SF-295, 48 h
SNB-75 = experiment: SRB anticancer assay, CNS; type: cell-based, human; settings: Homo sapiens, SNB-75, 48 h
786-0 = experiment: SRB anticancer assay, renal; type: cell-based, human; settings: Homo sapiens, 786-0, 48 h
TK-10 = experiment: SRB anticancer assay, renal; type: cell-based, human; settings: Homo sapiens, TK-10, 48 h
PC-3 = experiment: SRB anticancer assay, prostate; type: cell-based, human; settings: Homo sapiens, PC-3, 48 h
DU-145 = experiment: SRB anticancer assay, prostate; type: cell-based, human; settings: Homo sapiens, DU-145, 48 h
MCF7 = experiment: SRB anticancer assay, breast; type: cell-based, human; settings: Homo sapiens, MCF7, 48 h
HS 578T = experiment: SRB anticancer assay, breast; type: cell-based, human; settings: Homo sapiens, 48 h
LOX IMVI = experiment: SRB anticancer assay, melanoma; type: cell-based, human; settings: Homo sapiens, 48 h
MALME-3M = experiment: SRB anticancer assay, melanoma; type: cell-based, human; settings: Homo sapiens, Malme-3M, 48 h
SK-MEL-2 = experiment: SRB anticancer assay, melanoma; type: cell-based, human; settings: Homo sapiens, SK-MEL-2, 48 h
UACC-62 = experiment: SRB anticancer assay, melanoma; type: cell-based, human; settings: Homo sapiens, UACC-62, 48 h
Breast cancer cell lines = experiment: SRB anticancer assay, panel result; type: cell-based, human
Experimental: (§1) The compounds were evaluated for anticancer activity against sixty human cancer cells derived from nine cancer types (leukemia cell line, non-small-cell lung cell line, colon cell line, CNS cell line, melanoma cell line, ovarian cell line, prostate cell line, renal cancer cell line and breast cancer cell line) as shown in Table 1. For each compound, dose response curves for each cell line were measured at a minimum of five concentrations at 10 fold dilutions. A protocol of 48 h continuous drug exposure was used and a sulforhodamine B (SRB) protein assay was used to estimate cell viability or growth.

CNS cancer cell lines = experiment: SRB anticancer assay, panel result; type: cell-based, human
Experimental: as §1

Colon cancer cell lines = experiment: SRB anticancer assay, panel result; type: cell-based, human
Experimental: as §1

[1] = system: Leukemia cancer cell lines; experiment: SRB anticancer assay, panel result; type: cell-based, human
Experimental: as §1

[2] = system: Melanoma cancer cell lines; experiment: SRB anticancer assay, panel result; type: cell-based, human
Experimental: as §1

[3] = system: Non-small cell lung cancer cell lines; experiment: SRB anticancer assay, panel result; type: cell-based, human
Experimental: as §1

[4] = system: Ovarian cancer cell lines; experiment: SRB anticancer assay, panel result; type: cell-based, human
Experimental: as §1

[5] = system: Prostate cancer cell lines; experiment: SRB anticancer assay, panel result; type: cell-based, human
Experimental: as §1

Renal cancer cell lines = experiment: SRB anticancer assay, panel result; type: cell-based, human
Experimental: as §1

K562 (Leukemia) cells = experiment: Cell cycle distribution by flow cytometry; type: cell-based
Experimental: In order to investigate the mechanism underlying the anti-proliferative effect of the compounds the cell cycle distribution was analyzed in K562 (Leukemia) and MCF-7 (Breast carcinoma) cell lines by flow cytometry. Compounds CA-4, 21a, 21d, 4c, 6d, 6e, 6f, 7d, 7h and 7j have shown 1.72%, 14%, 12%, 14%, 12%, 14%, 14%, 16%, 16% &12% in K562 cells and 49.63%, 21%, 20%, 18%, 21%, 21%, 21%, 24%, 23% and 23% in MCF-7 cell line respectively. […] Thus compound 7d was considered for further studies (FIG. 1).

COc1cc(OC)c2sc(-c3ccc(-n4cncc4-c4ccc(OC)c(OC)c4)cc3)nc2c1 [Compound 6e, 2-(4-(5-(3,4-Dimethoxyphenyl)-1H-imidazol-1-yl)phenyl)-5,7-dimethoxybenzo[d]thiazole]
GI50 (A549/ATCC): 41.8 µM | GI50 (NCI-H522): 5.26 µM | GI50 (HT29): 7.13 µM | GI50 (SF-295): 7 µM | GI50 (SNB-75): 7.21 µM | GI50 (786-0): > 100 µM | GI50 (TK-10): > 100 µM | GI50 (PC-3): 3.66 µM | GI50 (DU-145): 27.9 µM | GI50 (MCF7): 5.36 µM | GI50 (HS 578T): 9.12 µM | GI50 (LOX IMVI): > 100 µM | GI50 (MALME-3M): 59.8 µM | GI50 (SK-MEL-2): 41.4 µM | GI50 (UACC-62): 8.14 µM | mean graph midpoint value (MG_MID) of log10 TGI (Breast cancer cell lines; Breast panel, total inhibition of net cell growth): >−4.0 | CC50 (Breast cancer cell lines; Homo sapiens, Breast panel, 50% net cell death, read-out: mean graph midpoint value (MG_MID) of Log10 LC50 (converted)): > 100 µM | GI50 (Breast cancer cell lines; Homo sapiens, Breast panel, read-out: mean graph midpoint value (MG_MID) of Log10 GI50 (converted)): 7.41 µM | GI50 (Breast cancer cell lines; Homo sapiens, six breast cancer cell lines, exposure at least 48 h, read-out: GI50, range over the panel): 3.78 to 28.4 µM | mean graph midpoint value (MG_MID) of log10 TGI (CNS cancer cell lines; CNS panel, total inhibition of net cell growth): −4.06 | CC50 (CNS cancer cell lines; Homo sapiens, CNS panel, 50% net cell death, read-out: mean graph midpoint value (MG_MID) of Log10 LC50 (converted)): > 100 µM | GI50 (CNS cancer cell lines; Homo sapiens, CNS panel, read-out: mean graph midpoint value (MG_MID) of Log10 GI50 (converted)): 19.1 µM | GI50 (CNS cancer cell lines; Homo sapiens, six CNS cancer cell lines, exposure at least 48 h, read-out: GI50, range over the panel): 7 to 9.96 µM | mean graph midpoint value (MG_MID) of log10 TGI (Colon cancer cell lines; Colon panel, total inhibition of net cell growth): >−4.0 | LC50 (Colon cancer cell lines; Homo sapiens, Colon panel, 50% net cell death, read-out: mean graph midpoint value (MG_MID) of Log10 LC50 (converted)): > 100 µM | GI50 (Colon cancer cell lines; Homo sapiens, Colon panel, read-out: mean graph midpoint value (MG_MID) of Log10 GI50 (converted)): 25.1 µM | GI50 (Colon cancer cell lines; Homo sapiens, seven colon cancer cell lines, exposure at least 48 h, read-out: GI50, range over the panel): 5.48 to 7.13 µM | LC50 ([1]; Homo sapiens, Leukemia panel, 50% net cell death, read-out: mean graph midpoint value (MG_MID) of Log10 LC50 (converted)): > 100 µM | GI50 ([1]; Homo sapiens, Leukemia panel, read-out: mean graph midpoint value (MG_MID) of Log10 GI50 (converted)): 16.2 µM | GI50 ([1]; Homo sapiens, six leukemia cancer cell lines, exposure at least 48 h, read-out: GI50, range over the panel): 3.03 to 5.88 µM | mean graph midpoint value (MG_MID) of log10 TGI ([1]; Leukemia panel, total inhibition of net cell growth): >−4.0 | LC50 ([2]; Homo sapiens, Melanoma panel, 50% net cell death, read-out: mean graph midpoint value (MG_MID) of Log10 LC50 (converted)): > 100 µM | GI50 ([2]; Homo sapiens, Melanoma panel, read-out: mean graph midpoint value (MG_MID) of Log10 GI50 (converted)): 40.7 µM | GI50 ([2]; Homo sapiens, nine melanoma cancer cell lines, exposure at least 48 h, read-out: GI50, range over the panel): 3.61 to 59.8 µM | mean graph midpoint value (MG_MID) of log10 TGI ([2]; Melanoma panel, total inhibition of net cell growth): >−4.0 | LC50 ([3]; Homo sapiens, Non-small cell lung panel, 50% net cell death, read-out: mean graph midpoint value (MG_MID) of Log10 LC50 (converted)): > 100 µM | GI50 ([3]; Homo sapiens, Non-small cell lung panel, read-out: mean graph midpoint value (MG_MID) of Log10 GI50 (converted)): 22.9 µM | GI50 ([3]; Homo sapiens, nine Non-small cell lung cancer cell lines, exposure at least 48 h, read-out: GI50, range over the panel): 5.26 to 41.8 µM | mean graph midpoint value (MG_MID) of log10 TGI ([3]; Non-small cell lung panel, total inhibition of net cell growth): −4.01 | LC50 ([4]; Homo sapiens, Ovarian panel, 50% net cell death, read-out: mean graph midpoint value (MG_MID) of Log10 LC50 (converted)): > 100 µM | GI50 ([4]; Homo sapiens, Ovarian panel, read-out: mean graph midpoint value (MG_MID) of Log10 GI50 (converted)): 29.5 µM | GI50 ([4]; Homo sapiens, seven ovarian cancer cell lines, exposure at least 48 h, read-out: GI50, range over the panel): 3.85 to 56.1 µM | mean graph midpoint value (MG_MID) of log10 TGI ([4]; Ovarian panel, total inhibition of net cell growth): >−4.0 | LC50 ([5]; Homo sapiens, Prostate panel, 50% net cell death, read-out: mean graph midpoint value (MG_MID) of Log10 LC50 (converted)): > 100 µM | GI50 ([5]; Homo sapiens, Prostate panel, read-out: mean graph midpoint value (MG_MID) of Log10 GI50 (converted)): 10.2 µM | GI50 ([5]; Homo sapiens, two prostate cancer cell lines (PC-3, DU-145), exposure at least 48 h, read-out: GI50, range over the panel): 3.66 to 27.9 µM | mean graph midpoint value (MG_MID) of log10 TGI ([5]; Prostate panel, total inhibition of net cell growth): >−4.0 | CC50 (Renal cancer cell lines; Homo sapiens, Renal panel, 50% net cell death, read-out: mean graph midpoint value (MG_MID) of Log10 LC50 (converted)): > 100 µM | GI50 (Renal cancer cell lines; Homo sapiens, Renal panel, read-out: mean graph midpoint value (MG_MID) of Log10 GI50 (converted)): 25.1 µM | GI50 (Renal cancer cell lines; Homo sapiens, eight renal cancer cell lines, exposure at least 48 h, read-out: GI50, range over the panel): 2.15 to 3.17 µM | mean graph midpoint value (MG_MID) of log10 TGI (Renal cancer cell lines; Renal panel, total inhibition of net cell growth): >−4.0 | cells in G2/M phase (K562 (Leukemia) cells): 14%
